Source: ChEMBL document CHEMBL1131905, “Tokaramide A, a new cathepsin B inhibitor from the marine sponge Theonella aff. mirabilis” (Bioorg Med Chem Lett, 1999)

Experiments:
Cathepsin B [1] = target: T1, Cathepsin B (Homo sapiens, UniProt P07858); test: Inhibitory activity against Cathepsin B was determined
Cathepsin B [2] = target: T1, Cathepsin B; test: Inhibitory activity against Cathepsin B at a concentration of 4 ng/mL
Cathepsin B [3] = target: T1, Cathepsin B; test: Inhibitory activity against Cathepsin B at a concentration of 70 ng/mL
Cathepsin B [4] = target: T1, Cathepsin B; test: Inhibitory activity against Cathepsin B at a concentration of 200 ng/mL
Cathepsin B [5] = target: T1, Cathepsin B; test: Inhibitory activity against Cathepsin B at a concentration of 1 ng/mL
Cathepsin B [6] = target: T1, Cathepsin B; test: Inhibitory activity against Cathepsin B at a concentration of 10 ng/mL
Cathepsin B [7] = target: T1, Cathepsin B; test: Inhibitory activity against Cathepsin B at a concentration of 400 ng/mL
Cathepsin B [8] = target: T1, Cathepsin B; test: Inhibitory activity against Cathepsin B at a concentration of 7 ng/mL
Cathepsin B [9] = target: T1, Cathepsin B; test: Inhibitory activity against Cathepsin B at a concentration of 50 ng/mL
Cathepsin B [10] = target: T1, Cathepsin B; test: Inhibitory activity against Cathepsin B at a concentration of 1000 ng/mL
Cathepsin B [11] = target: T1, Cathepsin B; test: Inhibitory activity against Cathepsin B at a concentration of 900 ng/mL
Cathepsin B [12] = target: T1, Cathepsin B; settings: 40 ng/mL
Description: Inhibitory activity against Cathepsin B at a concentration of 40 ng/mL

IC50 (Cathepsin B [1]) [nM]	inhibition (Cathepsin B [2]) [%]	inhibition (Cathepsin B [3]) [%]	inhibition (Cathepsin B [5]) [%]	inhibition (Cathepsin B [6]) [%]	inhibition (Cathepsin B [7]) [%]	inhibition (Cathepsin B [8]) [%]	inhibition (Cathepsin B [12]) [%]	SMILES	inhibition (Cathepsin B [4]) [%]	inhibition (Cathepsin B [9]) [%]	inhibition (Cathepsin B [10]) [%]	inhibition (Cathepsin B [11]) [%]
13.7	29	95	24	75	100	52		CC(C)C[C@H](NC(=O)[C@H]1O[C@@H]1C(=O)O)C(=O)NCCCCN=C(N)N [E-64]	98	90		
60.9	12	70	10	30	90	16	45	CC(C)[C@H](NC(=O)c1ccc(O)cc1)C(=O)N[C@H](C(=O)N[C@H](C=O)CCCN=C(N)N)C(C)C [TOKARAMIDE A]				100

SMILES	IC50 (Cathepsin B [1]) [nM]	inhibition (Cathepsin B [2]) [%]	inhibition (Cathepsin B [3]) [%]	inhibition (Cathepsin B [5]) [%]	inhibition (Cathepsin B [6]) [%]	inhibition (Cathepsin B [7]) [%]	inhibition (Cathepsin B [8]) [%]	inhibition (Cathepsin B [12]) [%]	inhibition (Cathepsin B [4]) [%]	inhibition (Cathepsin B [9]) [%]	inhibition (Cathepsin B [10]) [%]	inhibition (Cathepsin B [11]) [%]
CC(=O)N[C@@H](CC(C)C)C(=O)N[C@@H](CC(C)C)C(=O)N[C@H](C=O)CCCNC(=N)N [LEUPEPTIN]	21.6	25	82	15	55	100	35		95	75	100	100
